The results in this text go back to patent US6503940B2, “Prodrugs for antimicrobial amidines” (The University of North Carolina at Chapel Hill, priority 1999, dated 2003).

Data set [1] in a line: Toxicity observed in rats of the anti-PCP screening. As to conditions: rat. As for the experimental part: (§1) In the examples which follow, melting points were recorded using a Thomas-Hoover (Uni-Melt) capillary melting point apparatus and were uncorrected. TLC analysis was carried out on silica gel 60 F254 pre-coated aluminum sheets (0.20 mm layer thickness) (E. Merck of Whitehouse Station, N.J.) and detected under UV light. IR spectra were recorded using Perkin-Elmer Model 337 spectrometer sold by Perkin-Elmer of Norwalk, Conn. ^1H and ^13C NMR spectra were recorded employing a Varian GX400 or a Varian Unityplus 300 spectrometer (both sold by Varian of Palo Alto, Calif.) and chemical shifts (δ) are in ppm relative to TMS as internal standard. Mass Spectra were recorded on a VG Analytical 70-SE spectrometer (Georgia Institute of Technology, Atlanta, Ga.). IR spectra were recorded using a Perkin-Elmer 2000 instrument. […] All chloroformates were purchased from Aldrich Chemical Co. of St. Louis, Mo. Other chemicals and solvents were purchased from either Aldrich or Fischer Scientific of Houston, Tex. […] See Baijic, M., et al., Heterocycl. Commun., 1996, 2, pp. 135-140; Das, B. P., J. Med. Chem. 1977, 20, pp. 531-536; and Boykin, D. W., et al., Bioorg. Med. Chem Lett., 1996, 6, pp. 3017-3020. Anti-Pneumocystis carinii pneumonia activity screening was carried out according to published methods. See Jones, S. K. et al., Antimicrob. Agents Chemother., 1990, 34, pp. 1026-1030; Hall, J. E., et al., Antimicrob. Agents Chemother., 1998, 42, pp. 666-674; and Tidwell, R. R., et al., J. Med. Chem., 1990, 33, pp. 1252-1257. Compounds were routinely tested orally at 33 μmol/kg/day and intravenously at 22 μmol/kg/day. Saline- and pentamidine treated groups of rats were included as negative and positive controls, respectively.

Data set [2] has as its system Pneumocystis carinii. Description: Anti-Pneumocystis carinii pneumonia activity in immunosuppressed rat model. It is filed as in vivo. As for the experimental part:
as §1

Data set [3] deals with Pneumocystis carinii. The data set is described as above. It is filed as in vivo. This is another data set of the same source.

In the case of `Cc1oc(=O)oc1COC(=O)N=C(N)c1ccc(-c2ccc(-c3ccc(C(N)=NC(=O)OCc4oc(=O)oc4C)cc3)o2)cc1` [Compound 6, 2,5-bis{4-[N-(5-methyl-2-oxo-1,3-dioxol-4-ene-1-yl)methoxycarbonyl]amidinophenyl}furan], the Toxicity in data set [1] (Oral @ 33.0 μmol/kg/day) and in data set [1] (iv @ 22.0 μmol/kg/day) was 0 each time. Moreover, the “Cysts/g of lung (% of control)” value is 18.73 ± 11.87 % of control in the data set on Pneumocystis carinii [2] (Oral @ 33.0 μmol/kg/day) and 0.02 ± 0.01 % of control with Pneumocystis carinii [2] (iv @ 22.0 μmol/kg/day).

Take `NC(=NC(=O)Oc1ccc(F)cc1)c1ccc(-c2ccc(-c3ccc(C(N)=NC(=O)Oc4ccc(F)cc4)cc3)o2)cc1` [Compound 8, 2,5-bis[4-(N-(4-fluoro)phenoxycarbonyl)amidinophenyl]furan]: the Toxicity in data set [1] (Oral @ 33.0 μmol/kg/day) and in data set [1] (iv @ 22.0 μmol/kg/day) was 0 throughout. The “Cysts/g of lung (% of control)” value is 2.21 ± 0.33 % of control with Pneumocystis carinii [2] (Oral @ 33.0 μmol/kg/day) and 0.02 ± 0.01 % of control in the data set with Pneumocystis carinii [2] (iv @ 22.0 μmol/kg/day).

Take `CC(=O)OC(C)OC(=O)NC(=N)c1ccc(-c2ccc(-c3ccc(C(=N)NC(=O)OC(C)OC(C)=O)cc3)o2)cc1` (stereo not drawn) [Compound 10, 2,5-bis[4(1-Acetoxyethoxycarbonyl)amidinophenyl]furan]: the “Cysts/g of lung (% of control)” value in the data set with Pneumocystis carinii [3] (iv @ 11.0 μmol/kg/day) was 1.21 ± 1.02 % of control; in the data set on Pneumocystis carinii [2] (Oral @ 33.0 μmol/kg/day) it was 57.16 ± 10.19 % of control. The molecule further displayed a Toxicity in data set [1] (Oral @ 33.0 μmol/kg/day) of 0.

For `COC(=O)NC(=N)c1ccc(-c2ccc(-c3ccc(C(=N)NC(=O)OC)cc3)o2)cc1` [Compound 2, 2,5-Bis[4-(N-methoxycarbonyl)amidinophenyl]furan], the Toxicity in data set [1] (Oral @ 33.0 μmol/kg/day) and in data set [1] (iv @ 22.0 μmol/kg/day) was 0 throughout. Moreover, the figures for the “Cysts/g of lung (% of control)” value with Pneumocystis carinii [2] (Oral @ 33.0 μmol/kg/day) and with Pneumocystis carinii [2] (iv @ 22.0 μmol/kg/day) were 49.68 ± 20.50 % of control and 6.91 ± 6.01 % of control, respectively.

As for “2,5-bis[4-(N-2,2,2-trichloroethoxycarbonyl)amidinophenyl]furan [Compound 3]”, the Toxicity in data set [1] (Oral @ 33.0 μmol/kg/day) and in data set [1] (iv @ 22.0 μmol/kg/day) was 0 throughout. In addition, the “Cysts/g of lung (% of control)” value is given as 8.59 ± 9.14 % of control with Pneumocystis carinii [2] (Oral @ 33.0 μmol/kg/day) and 1.85 ± 1.79 % of control in the data set on Pneumocystis carinii [2] (iv @ 22.0 μmol/kg/day).

Turning to `[H]/N=C(\N)c1ccc(-c2ccc(-c3ccc(/C(N)=N/[H])cc3)o2)cc1` [Compound 1, 2,5-Bis(4-amidinophenyl)furan, reference compound], the results for the “Cysts/g of lung (% of control)” value in the data set with Pneumocystis carinii [3] (Oral @ 39.8 μmol/kg/day) and in the data set on Pneumocystis carinii [3] (iv @ 13.3 μmol/kg/day) were 44.52 ± 13.30 % of control and 0.83 ± 0.36 % of control, respectively. In addition, the Toxicity in data set [1] (Oral @ 39.8 μmol/kg/day) and in data set [1] (iv @ 13.3 μmol/kg/day) was 0 each time.

Turning to `CCSC(=O)N=C(N)c1ccc(-c2ccc(-c3ccc(C(N)=NC(=O)SCC)cc3)o2)cc1` [Compound 4, 2,5-bis[4-(N-thioethylcarbonyl)amidinophenyl]furan], the Toxicity in data set [1] (Oral @ 33.0 μmol/kg/day) and in data set [1] (iv @ 22.0 μmol/kg/day) was 0 throughout. In addition, the “Cysts/g of lung (% of control)” value is 19.52 ± 14.22 % of control in the data set with Pneumocystis carinii [2] (Oral @ 33.0 μmol/kg/day) and 83.01 ± 43.65 % of control in the data set with Pneumocystis carinii [2] (iv @ 22.0 μmol/kg/day).

On to `NC(=NC(=O)Oc1ccccc1)c1ccc(-c2ccc(-c3ccc(C(N)=NC(=O)Oc4ccccc4)cc3)o2)cc1` [Compound 7, 2,5-Bis[4-(N-phenoxycarbonyl)amidinophenyl]furan], for which the Toxicity in data set [1] (Oral @ 33.0 μmol/kg/day) and in data set [1] (iv @ 22.0 μmol/kg/day) was 0 each time. For the same molecule, the “Cysts/g of lung (% of control)” value is 5.70 ± 5.15 % of control in the data set with Pneumocystis carinii [2] (Oral @ 33.0 μmol/kg/day) and 3.61 ± 1.80 % of control in the data set on Pneumocystis carinii [2] (iv @ 22.0 μmol/kg/day).

For `COc1ccc(OC(=O)N=C(N)c2ccc(-c3ccc(-c4ccc(C(N)=NC(=O)Oc5ccc(OC)cc5)cc4)o3)cc2)cc1` [Compound 9, 2,5-bis[4-(N-(4-methoxy)phenoxycarbonyl)amidinophenyl]furan], the Toxicity in data set [1] (Oral @ 33.0 μmol/kg/day) and in data set [1] (iv @ 22.0 μmol/kg/day) was 0 throughout. Moreover, the figures for the “Cysts/g of lung (% of control)” value in the data set with Pneumocystis carinii [2] (Oral @ 33.0 μmol/kg/day) and in the data set on Pneumocystis carinii [2] (iv @ 22.0 μmol/kg/day) were 2.10 ± 2.08 % of control and 0.02 ± 0.01 % of control, respectively.

Regarding `NC(=NC(=O)OCc1ccccc1)c1ccc(-c2ccc(-c3ccc(C(N)=NC(=O)OCc4ccccc4)cc3)o2)cc1` [Compound 5, 2,5-bis[4-(N-benzyloxycarbonyl)amidinophenyl]furan], the “Cysts/g of lung (% of control)” value is reported as 0.03 ± 0.02 % of control in the data set with Pneumocystis carinii [3] (iv @ 11.0 μmol/kg/day) and 18.09 ± 9.16 % of control with Pneumocystis carinii [2] (Oral @ 33.0 μmol/kg/day).

On to `CCOC(=O)ON=C(N)c1ccc(-c2ccc(-c3ccc(C(N)=NOC(=O)OCC)cc3)o2)cc1` [Compound 11, 2,5-bis[4(N-ethoxycarbonyloxy)amidinophenyl]furan], for which the “Cysts/g of lung (% of control)” value with Pneumocystis carinii [3] (iv @ 34.7 μmol/kg/day) is reported as 1.66 ± 0.58 % of control; in the data set on Pneumocystis carinii [2] (Oral @ 33.0 μmol/kg/day), 96.90 ± 48.48 % of control. Besides, the Toxicity in data set [1] (Oral @ 33.0 μmol/kg/day) and in data set [1] (iv @ 34.7 μmol/kg/day) was 0 throughout.

Take `N=C(N)c1ccc(OCCCCCOc2ccc(C(=N)N)cc2)cc1` [Pentamidine, 1,5-bis(4-amidinophenoxy)pentane, reference compound]: the “Cysts/g of lung (% of control)” value with Pneumocystis carinii [2] (iv @ 22.0 μmol/kg/day) is recorded as 3.06 ± 0.90 % of control.
